Molecules are shown by their SMILES.

The target in one experiment is JAK1 (Homo sapiens (Human), UniProt P23458). Put plainly: Jak Biochemical HTRF Assay (JAK1). The conditions noted are these: recombinant purified GST-tagged catalytic domain; HTRF; [ATP] 31.8 μM; [E] 1.405 nM. As for the experimental part:
(§1) Jak Biochemical HTRF Assay Protocol
(§2) The ability of compounds to inhibit the activity of JAK1, JAK2, JAK3, and Tyk2 was measured using a recombinant purified GST-tagged catalytic domain for each enzyme (Invitrogen JAK1 #M4290, JAK2 #M4290, JAK3 #M4290, Tyk2 #M4290) in an HTRF format biochemical assay. […] The basic assay protocol is as follows: First, 250 nL of diluted compounds in DMSO were dispensed into the wells of a dry 384-well Black plate (Greiner #781076) using a Labcyte Echo 555 acoustic dispenser. Subsequent reagent additions employed an Agilent Bravo. Next, 18 μL of 1.11× enzyme and 1.11× substrate in 1× assay buffer (Invitrogen kinase buffer # PV3189, 2 mM DTT, 0.05% BSA) were added to the wells and shaken and then preincubated for 30 minutes at room temperature to allow compound binding to equilibrate. After equilibration, 2 μL of 10×ATP in 1× assay buffer was added to initiate the kinase reaction and the plates were shaken and then incubated at room temperature for 120 minutes. At the end of the incubation, 20 μL of 2× stop buffer (streptavidin-Dylight 650 (Thermo #84547B/100 mL), Eu-tagged pY20 antibody (Perkin Elmer #AD0067), EDTA, HEPES, and Triton) was added to quench the reaction. Plates were shaken and centrifuged and then incubated 60 minutes at room temperature and then read on a Perkin Elmer Envision (Xex=337 nm, λem=665 and 615 nm, TRF delay time=20 μs). HTRF signal=10,000*665 nm reading/615 nm reading. After normalization to untreated controls, the percent inhibition of the HTRF signal at each compound concentration was calculated. The plot of percent inhibition versus the log of compound concentration was fit with a 4-parameter dose response equation to calculate IC50 values.

The target in the next experiment is JAK2 (Homo sapiens (Human), UniProt O60674). Briefly: Jak Biochemical HTRF Assay (JAK2). The conditions noted are these: recombinant purified GST-tagged catalytic domain, [ATP] 8.5 μM, [E] 0.052 nM. As for the experimental part:
as §1, §2

JAK2, sequence (O60674 849-1124): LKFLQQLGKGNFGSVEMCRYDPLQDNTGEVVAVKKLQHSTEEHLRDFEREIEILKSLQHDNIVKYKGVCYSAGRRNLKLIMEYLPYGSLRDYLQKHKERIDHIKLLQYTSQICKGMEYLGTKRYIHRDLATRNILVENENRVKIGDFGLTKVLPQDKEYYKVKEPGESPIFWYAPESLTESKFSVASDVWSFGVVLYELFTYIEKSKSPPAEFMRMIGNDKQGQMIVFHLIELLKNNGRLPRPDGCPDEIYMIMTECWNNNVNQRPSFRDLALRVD
JAK1, sequence (P23458 875-1153): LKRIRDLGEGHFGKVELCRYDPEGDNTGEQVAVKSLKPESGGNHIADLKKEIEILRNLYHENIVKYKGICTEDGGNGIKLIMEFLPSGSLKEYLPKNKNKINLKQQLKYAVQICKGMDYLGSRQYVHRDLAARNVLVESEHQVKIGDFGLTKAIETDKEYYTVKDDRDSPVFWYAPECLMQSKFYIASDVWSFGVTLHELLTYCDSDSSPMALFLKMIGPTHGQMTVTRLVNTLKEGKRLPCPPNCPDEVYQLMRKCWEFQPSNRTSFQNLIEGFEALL

Turning to `CCC1(n2nc(Nc3ccc(C(=O)N4CCO[C@H](C)C4)c(C)c3)c3c(=O)[nH]ccc32)CCN(C(=O)OC(C)(C)C)CC1` [Example 2-7, (R)-tert-butyl-4-ethyl-4-(3-(3-methyl-4-(2-methylmorpholine-4-carbonyl)phenylamino)-4-oxo-4,5-dihydropyrazolo[4,3-c]pyridin-1-yl) piperidine-1-carboxylate], the values for the half-maximal inhibitory concentration (IC50) at JAK1 and on JAK2 were 720 pM and 600 pM, respectively.
In the same order, the values of `CCC1(n2nc(Nc3ccc(C(=O)N4CCOCC4(C)C)c(C)c3)c3c(=O)[nH]ccc32)CCN(C(=O)OC(C)(C)C)CC1` [Example 3-5, tert-butyl 4-[3-({4-[(3,3-dimethylmorpholin-4-yl)carbonyl]-3-methylphenyl}amino)-4-oxo-4,5-dihydro-1H-pyrazolo[4,3-c]pyridin-1-yl]-4-ethylpiperidine-1-carboxylate] are 730 pM and 1210 pM.
The like results for `CCC1(n2nc(Nc3ccc([C@@]4(C(F)(F)F)CCCN4)cc3)c3c(=O)[nH]ccc32)CCN(C(=O)OC(C)(C)C)CC1` (single isomer, unassigned) [Example 2-34, (R or S)-tert-butyl 4-ethyl-4-(4-oxo-3-(4-(2-(trifluoromethyl)pyrrolidin-2-yl)phenylamino)-4,5-dihydropyrazolo[4,3-c]pyridin-1-yl) piperidine-1-carboxylate] were, in that order, 2500 pM and 2500 pM.
In the same order, the values of `CCC1(n2nc(Nc3ccc(C(=O)N4CC[S+]([O-])CC4)c(C)c3)c3c(=O)[nH]ccc32)CCN(C(=O)OC(C)(C)C)CC1` [Example 3-11, tert-butyl 4-ethyl-4-[3-({3-methyl-4-[(1-oxidothiomorpholin-4-yl)carbonyl]phenyl}amino)-4-oxo-4,5-dihydro-1H-pyrazolo[4,3-c]pyridin-1-yl]piperidine-1-carboxylate] are 190 pM and 250 pM.
Turning to `CCC1(n2nc(Nc3ccc(C(=O)N4CCOCC(C)C4)c(C)c3)c3c(=O)[nH]ccc32)CCN(C(=O)OC(C)(C)C)CC1` (single isomer, unassigned) [Example 3-19, tert-butyl 4-ethyl-4-[3-({3-methyl-4-[(6R or 6S-methyl-1,4-oxazepan-4-yl)carbonyl]phenyl}amino)-4-oxo-4,5-dihydro-1H-pyrazolo [4,3-c]pyridin-1-yl] piperidine-1-carboxylate], the IC50 at JAK1 came out at 1230 pM; on JAK2, 890 pM.
Consider `CCC1(n2nc(Nc3ccc4c(c3)CN(C3CCOCC3)S4(=O)=O)c3c(=O)[nH]ccc32)CCN(C(=O)OC(C)(C)C)CC1` [Example 2-5, tert-butyl 4-ethyl-4-(3-{[2-(oxan-4-yl)-1,1-dioxo-2,3-dihydro-1,2-benzothiazol-5-yl]amino}-4-oxo-1H,4H,5H-pyrazolo [4,3-c]pyridin-1-yl) piperidine-1-carboxylate], for which the IC50 at JAK1 is 540 pM; at JAK2, 600 pM.
As for `CCC1(n2nc(Nc3ccc(C(=O)N4CCSCC4)c(C)c3)c3c(=O)[nH]ccc32)CCN(C(=O)OC(C)(C)C)CC1` [Example 2-21, tert-butyl 4-ethyl-4-(3-(3-methyl-4-(thiomorpholine-4-carbonyl)phenylamino)-4-oxo-4,5-dihydropyrazolo[4,3-c]pyridin-1-yl) piperidine-1-carboxylate], the IC50 on JAK1 amounted to 840 pM; on JAK2, 930 pM.
The like results for `CCc1cc(Nc2nn(C3(CC)CCN(C(=O)OC(C)(C)C)CC3)c3cc[nH]c(=O)c23)ccc1C(=O)N1CCOCC1` [Example 2-24, tert-butyl 4-ethyl-4-(3-((3-ethyl-4-(morpholine-4-carbonyl)phenyl)amino)-4-oxo-4,5-dihydro-1H-pyrazolo[4,3-c]pyridin-1-yl) piperidine-1-carboxylate] were, in that order, 470 pM and 840 pM.
`CCC1(n2nc(Nc3ccc4c(c3)CN(C3(C)CCC(F)(F)CC3)C4=O)c3c(=O)[nH]ccc32)CCN(C(=O)OC(C)(C)C)CC1` [Example 2-2, tert-butyl 4-(3-(2-(4,4-difluoro-1-methylcyclohexyl)-1-oxoisoindolin-5-ylamino)-4-oxo-4,5-dihydropyrazolo[4,3-c]pyridin-1-yl)-4-ethylpiperidine-1-carboxylate]: the IC50 came to 3210 pM on JAK1 and 3160 pM on JAK2.
For `CCC1(n2nc(Nc3ccc(C4CCNCC4)cc3)c3c(=O)[nH]ccc32)CCN(C(=O)OC(C)(C)C)CC1` [Example 2-23, tert-butyl 4-ethyl-4-(4-oxo-3-(4-(piperidin-4-yl)phenylamino)-4,5-dihydropyrazolo[4,3-c]pyridin-1-yl) piperidine-1-carboxylate], the IC50 is 1130 pM on JAK1 and 1920 pM on JAK2.
The like results for `CCC1(n2nc(Nc3ccc(C(=O)N4CCCC4)c(C)c3)c3c(=O)[nH]ccc32)CCN(C(=O)OC(C)(C)C)CC1` [Example 2-33, tert-butyl 4-ethyl-4-(3-(3-methyl-4-(pyrrolidine-1-carbonyl)phenylamino)-4-oxo-4,5-dihydropyrazolo[4,3-c]pyridin-1-yl) piperidine-1-carboxylate] were, in that order, 730 pM and 1060 pM.
On to `CCC1(n2nc(Nc3ccc(C4CCN(C)CC4)cc3)c3c(=O)[nH]ccc32)CCN(C(=O)OC(C)(C)C)CC1` [Example 2-4, tert-butyl 4-ethyl-4-(3-(4-(1-methylpiperidin-4-yl)phenylamino)-4-oxo-4,5-dihydropyrazolo[4,3-c]pyridin-1-yl) piperidine-1-carboxylate], for which the concentration for half-maximal inhibition (IC50) on JAK1 came out at 370 pM; on JAK2, 560 pM.
In the same order, the values of `CCC1(n2nc(Nc3ccc(C(=O)N4CCSCC4)c(C(F)F)c3)c3c(=O)[nH]ccc32)CCN(C(=O)OC(C)(C)C)CC1` [Example 2-25, tert-butyl 4-(3-(3-(difluoromethyl)-4-(thiomorpholine-4-carbonyl)phenylamino)-4-oxo-4,5-dihydropyrazolo[4,3-c]pyridin-1-yl)-4-ethylpiperidine-1-carboxylate] are 1730 pM and 2800 pM.
With `CCC1(n2nc(Nc3ccc(C(=O)N4CCOC[C@H]4C)c(C)c3)c3c(=O)[nH]ccc32)CCN(C(=O)OC(C)(C)C)CC1` [Example 2-28, (R)-tert-butyl-4-ethyl-4-(3-(3-methyl-4-(3-methylmorpholine-4-carbonyl)phenylamino)-4-oxo-4,5-dihydropyrazolo[4,3-c]pyridin-1-yl) piperidine-1-carboxylate], the values for the 50% inhibitory concentration (IC50) at JAK1 and on JAK2 were 540 pM and 510 pM, respectively.
As for `CCC1(n2nc(Nc3ccc(C(=O)N4CCOC5CC54)c(C)c3)c3c(=O)[nH]ccc32)CCN(C(=O)OC(C)(C)C)CC1` (centres unmarked) [Example 3-21, tert-butyl 4-ethyl-4-(3-{[3-methyl-4-(2-oxa-5-azabicyclo [4.1.0]hept-5-ylcarbonyl)phenyl]amino}-4-oxo-4,5-dihydro-1H-pyrazolo [4,3-c]pyridin-1-yl) piperidine-1-carboxylate], the half-maximal inhibitory concentration (IC50) turned out to be 1690 pM on JAK1 and 1340 pM on JAK2.
In the same order, the values of `CCC1(n2nc(Nc3ccc(C4CCN(CC(F)(F)F)CC4)cc3)c3c(=O)[nH]ccc32)CCN(C(=O)OC(C)(C)C)CC1` [Example 2-3, tert-butyl 4-ethyl-4-(4-oxo-3-(4-(1-(2,2,2-trifluoroethyl)piperidin-4-yl)phenylamino)-4,5-dihydropyrazolo [4,3-c]pyridin-1-yl) piperidine-1-carboxylate] are 10200 pM and 71300 pM.

For the origin of these results see patent US10072025B2, “Ethyl N-boc piperidinyl pyrazolo pyridones as Janus kinase inhibitors” (Merck Sharp & Dohme Corp., priority 2014, dated 2018).
